# Test results as given in ChEMBL document CHEMBL3351286, “Strategies to inhibit tumor associated integrin receptors: rationale for dual and multi-antagonists” (J Med Chem, 2014).
# pIC50: −log10 of the molar value.
# Tests used:
# Integrin alpha2/beta1 = Integrin alpha2/beta1 (Homo sapiens, UniProt P05556+P17301); assay: Antagonist activity at alpha2beta1 integrin receptor (unknown origin) by cell-free ELISA; type: protein-complex assay
# Integrin alpha-V/beta-1 = Integrin alpha-V/beta-1 (Homo sapiens, UniProt P05556+P06756); assay: Antagonist activity at alphavbeta1 integrin receptor (unknown origin) by cell-free ELISA; type: protein-complex assay
# [1] = biological target: Integrin alpha-10/Integrin beta-1 (Homo sapiens, UniProt O75578+P05556); assay: Antagonist activity at alpha10beta1 integrin receptor (unknown origin) by cell-free ELISA; type: protein-complex assay
# Integrin alpha-V/beta-8 = Integrin alpha-V/beta-8 (Homo sapiens, UniProt P06756+P26012); assay: Antagonist activity at alphavbeta8 integrin receptor (unknown origin) by cell-free ELISA; type: protein-complex assay
# [2] = biological target: Integrin alpha-IIb/beta-3 (Homo sapiens, UniProt P05106+P08514); assay: Antagonist activity at alpha2bbeta3 integrin receptor (unknown origin) by cell-free ELISA; type: protein-complex assay
# Integrin alpha-V/beta-5 [3] = biological target: T1, Integrin alpha-V/beta-5 (Homo sapiens, UniProt P06756+P18084); assay: Antagonist activity at alphavbeta5 integrin receptor (unknown origin) by cell-based ELISA
# Integrin alpha-V/beta-3 = Integrin alpha-V/beta-3 (Homo sapiens, UniProt P05106+P06756); assay: Antagonist activity at alphavbeta3 integrin receptor (unknown origin) by cell-free ELISA; type: protein-complex assay
# Integrin alpha-5/beta-1 = Integrin alpha-5/beta-1 (Homo sapiens, UniProt P05556+P08648); assay: Antagonist activity at alpha5beta1 integrin receptor (unknown origin) by cell-free ELISA; type: protein-complex assay
# Integrin alpha-V/beta-6 = Integrin alpha-V/beta-6 (Homo sapiens, UniProt P06756+P18564); assay: Antagonist activity at alphavbeta6 integrin receptor (unknown origin) by cell-free ELISA; type: protein-complex assay
# Integrin alpha-V/beta-5 [4] = biological target: T1, Integrin alpha-V/beta-5; assay: Antagonist activity at alphavbeta5 integrin receptor (unknown origin) by cell-free ELISA; type: protein-complex assay
# Integrin alpha-4/beta-7 = biological target: T2, Integrin alpha-4/beta-7 (Homo sapiens, UniProt P13612+P26010); assay: Antagonist activity at alpha4beta7 integrin receptor (unknown origin) by cell-free ELISA; type: protein-complex assay
# T2 sequence (P13612 whole entry): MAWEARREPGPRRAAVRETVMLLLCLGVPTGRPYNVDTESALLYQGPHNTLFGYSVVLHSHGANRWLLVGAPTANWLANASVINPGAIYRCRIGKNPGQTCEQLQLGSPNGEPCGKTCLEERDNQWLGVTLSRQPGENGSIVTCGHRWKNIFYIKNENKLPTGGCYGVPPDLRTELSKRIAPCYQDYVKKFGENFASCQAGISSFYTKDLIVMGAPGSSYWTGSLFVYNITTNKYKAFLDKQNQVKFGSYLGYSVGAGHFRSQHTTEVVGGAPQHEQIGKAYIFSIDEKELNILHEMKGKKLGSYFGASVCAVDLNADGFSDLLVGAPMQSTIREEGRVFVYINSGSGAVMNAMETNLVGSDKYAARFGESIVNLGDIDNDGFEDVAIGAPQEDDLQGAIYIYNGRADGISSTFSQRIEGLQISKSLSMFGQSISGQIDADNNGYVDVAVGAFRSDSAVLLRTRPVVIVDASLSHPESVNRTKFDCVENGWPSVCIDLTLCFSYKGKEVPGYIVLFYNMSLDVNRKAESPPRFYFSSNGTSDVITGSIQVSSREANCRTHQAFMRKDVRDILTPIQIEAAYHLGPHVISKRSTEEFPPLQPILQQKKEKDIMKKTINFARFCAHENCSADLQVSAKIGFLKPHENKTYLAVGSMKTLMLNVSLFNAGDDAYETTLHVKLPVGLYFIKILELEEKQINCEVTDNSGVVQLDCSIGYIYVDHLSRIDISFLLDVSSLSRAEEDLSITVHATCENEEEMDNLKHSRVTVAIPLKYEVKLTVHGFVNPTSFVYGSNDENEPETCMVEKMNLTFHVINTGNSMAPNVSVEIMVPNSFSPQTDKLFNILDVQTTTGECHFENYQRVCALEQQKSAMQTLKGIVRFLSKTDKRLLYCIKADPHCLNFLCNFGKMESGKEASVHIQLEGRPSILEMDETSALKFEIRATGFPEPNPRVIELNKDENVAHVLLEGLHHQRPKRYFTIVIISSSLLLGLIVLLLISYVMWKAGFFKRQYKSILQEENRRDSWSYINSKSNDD
# T2 sequence (P26010 whole entry): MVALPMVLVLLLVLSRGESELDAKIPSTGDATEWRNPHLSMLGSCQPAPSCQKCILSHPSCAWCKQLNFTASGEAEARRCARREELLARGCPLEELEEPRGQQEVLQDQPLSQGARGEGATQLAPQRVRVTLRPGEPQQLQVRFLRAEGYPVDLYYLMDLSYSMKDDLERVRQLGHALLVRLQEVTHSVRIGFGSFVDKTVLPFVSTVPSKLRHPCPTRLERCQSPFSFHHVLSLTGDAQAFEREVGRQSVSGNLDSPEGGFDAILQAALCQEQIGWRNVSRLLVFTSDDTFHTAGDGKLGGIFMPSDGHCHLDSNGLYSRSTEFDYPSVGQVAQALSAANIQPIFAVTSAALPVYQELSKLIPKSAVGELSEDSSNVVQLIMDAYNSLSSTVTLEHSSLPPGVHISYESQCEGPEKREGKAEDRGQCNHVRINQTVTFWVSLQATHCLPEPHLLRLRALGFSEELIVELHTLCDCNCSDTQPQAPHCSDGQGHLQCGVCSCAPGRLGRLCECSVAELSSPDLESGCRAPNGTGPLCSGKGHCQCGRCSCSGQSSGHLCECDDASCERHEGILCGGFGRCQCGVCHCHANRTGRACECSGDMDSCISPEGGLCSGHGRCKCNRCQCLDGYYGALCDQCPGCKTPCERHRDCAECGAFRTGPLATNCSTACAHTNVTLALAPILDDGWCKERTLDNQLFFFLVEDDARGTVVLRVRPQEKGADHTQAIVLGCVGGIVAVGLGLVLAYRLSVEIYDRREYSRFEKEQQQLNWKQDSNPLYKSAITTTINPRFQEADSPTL
# Integrin alpha-V/beta-8, sequence (P06756 31-889 limits assumed): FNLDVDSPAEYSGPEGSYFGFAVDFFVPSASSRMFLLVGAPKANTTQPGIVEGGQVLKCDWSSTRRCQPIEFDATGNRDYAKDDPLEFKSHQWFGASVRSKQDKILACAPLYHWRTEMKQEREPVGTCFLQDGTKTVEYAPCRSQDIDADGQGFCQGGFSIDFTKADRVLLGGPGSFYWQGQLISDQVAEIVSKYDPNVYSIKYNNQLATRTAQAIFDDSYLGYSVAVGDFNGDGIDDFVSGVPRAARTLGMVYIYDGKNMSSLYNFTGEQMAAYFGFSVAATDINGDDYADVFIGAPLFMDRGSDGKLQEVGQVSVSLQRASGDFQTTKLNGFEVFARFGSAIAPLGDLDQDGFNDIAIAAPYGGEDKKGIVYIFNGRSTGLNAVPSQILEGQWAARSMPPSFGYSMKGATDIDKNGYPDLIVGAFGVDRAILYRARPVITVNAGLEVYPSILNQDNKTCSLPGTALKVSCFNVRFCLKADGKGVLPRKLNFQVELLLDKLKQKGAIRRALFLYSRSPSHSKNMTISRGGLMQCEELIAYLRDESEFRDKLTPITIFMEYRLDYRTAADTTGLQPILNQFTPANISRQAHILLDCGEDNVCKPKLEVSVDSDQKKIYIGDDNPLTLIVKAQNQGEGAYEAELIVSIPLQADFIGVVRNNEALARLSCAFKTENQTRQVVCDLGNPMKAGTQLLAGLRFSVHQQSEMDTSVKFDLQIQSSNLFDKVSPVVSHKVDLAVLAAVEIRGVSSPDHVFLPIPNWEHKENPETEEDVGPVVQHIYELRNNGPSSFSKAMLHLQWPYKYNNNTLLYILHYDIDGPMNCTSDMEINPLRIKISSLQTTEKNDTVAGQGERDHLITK
# Integrin alpha-V/beta-8, sequence (P06756 891-1048 limits assumed): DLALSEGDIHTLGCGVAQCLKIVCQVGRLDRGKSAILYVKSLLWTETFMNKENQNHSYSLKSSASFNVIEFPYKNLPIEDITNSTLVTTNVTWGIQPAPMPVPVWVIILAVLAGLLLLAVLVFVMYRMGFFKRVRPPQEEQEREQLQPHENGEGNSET
# Integrin alpha-V/beta-8, sequence (P26012 43-769 limits assumed): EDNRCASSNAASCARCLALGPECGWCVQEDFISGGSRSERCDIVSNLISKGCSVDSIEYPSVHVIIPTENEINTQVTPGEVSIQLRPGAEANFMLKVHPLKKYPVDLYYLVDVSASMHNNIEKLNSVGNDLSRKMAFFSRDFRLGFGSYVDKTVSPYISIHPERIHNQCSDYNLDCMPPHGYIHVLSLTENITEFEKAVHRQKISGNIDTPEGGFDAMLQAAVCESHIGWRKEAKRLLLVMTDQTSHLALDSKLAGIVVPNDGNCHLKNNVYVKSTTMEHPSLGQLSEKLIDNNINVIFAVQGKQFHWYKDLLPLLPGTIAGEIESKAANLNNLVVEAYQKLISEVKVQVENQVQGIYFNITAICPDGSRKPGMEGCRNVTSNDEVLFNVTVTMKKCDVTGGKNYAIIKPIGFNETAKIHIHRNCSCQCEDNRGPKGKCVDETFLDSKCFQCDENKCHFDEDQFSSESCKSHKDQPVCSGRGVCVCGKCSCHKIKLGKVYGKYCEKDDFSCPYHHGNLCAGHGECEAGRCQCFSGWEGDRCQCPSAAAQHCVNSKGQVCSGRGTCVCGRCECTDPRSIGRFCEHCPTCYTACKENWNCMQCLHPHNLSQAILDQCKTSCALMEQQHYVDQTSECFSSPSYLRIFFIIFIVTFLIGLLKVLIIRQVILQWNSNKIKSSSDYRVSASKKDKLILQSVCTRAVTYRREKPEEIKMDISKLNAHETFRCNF
# T1 sequence (P06756 31-889 limits assumed): as the sequence (P06756 31-889 limits assumed) above
# T1 sequence (P06756 891-1048 limits assumed): as the sequence (P06756 891-1048 limits assumed) above
# T1 sequence (P18084 24-799 limits assumed): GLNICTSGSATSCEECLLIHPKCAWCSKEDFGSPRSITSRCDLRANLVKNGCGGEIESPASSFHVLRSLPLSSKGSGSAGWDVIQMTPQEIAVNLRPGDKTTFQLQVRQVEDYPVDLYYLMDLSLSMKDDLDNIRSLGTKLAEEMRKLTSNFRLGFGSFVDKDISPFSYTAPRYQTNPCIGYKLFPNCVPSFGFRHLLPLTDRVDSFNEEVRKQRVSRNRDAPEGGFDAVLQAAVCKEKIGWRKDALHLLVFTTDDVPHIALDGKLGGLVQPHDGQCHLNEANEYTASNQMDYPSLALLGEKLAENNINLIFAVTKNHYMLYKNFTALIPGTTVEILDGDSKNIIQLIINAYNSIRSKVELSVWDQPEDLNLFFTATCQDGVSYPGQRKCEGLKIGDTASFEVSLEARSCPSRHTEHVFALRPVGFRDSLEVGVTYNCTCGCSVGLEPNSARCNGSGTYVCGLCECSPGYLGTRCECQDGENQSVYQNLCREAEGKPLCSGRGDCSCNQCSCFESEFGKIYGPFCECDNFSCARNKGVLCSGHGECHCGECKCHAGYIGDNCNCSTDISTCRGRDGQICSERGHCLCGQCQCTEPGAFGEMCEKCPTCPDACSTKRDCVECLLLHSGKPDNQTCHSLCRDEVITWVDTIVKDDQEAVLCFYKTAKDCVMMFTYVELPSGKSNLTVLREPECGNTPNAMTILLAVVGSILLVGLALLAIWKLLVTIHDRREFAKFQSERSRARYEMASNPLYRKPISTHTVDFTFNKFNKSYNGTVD
# Integrin alpha-V/beta-1, sequence (P05556 21-798 limits assumed): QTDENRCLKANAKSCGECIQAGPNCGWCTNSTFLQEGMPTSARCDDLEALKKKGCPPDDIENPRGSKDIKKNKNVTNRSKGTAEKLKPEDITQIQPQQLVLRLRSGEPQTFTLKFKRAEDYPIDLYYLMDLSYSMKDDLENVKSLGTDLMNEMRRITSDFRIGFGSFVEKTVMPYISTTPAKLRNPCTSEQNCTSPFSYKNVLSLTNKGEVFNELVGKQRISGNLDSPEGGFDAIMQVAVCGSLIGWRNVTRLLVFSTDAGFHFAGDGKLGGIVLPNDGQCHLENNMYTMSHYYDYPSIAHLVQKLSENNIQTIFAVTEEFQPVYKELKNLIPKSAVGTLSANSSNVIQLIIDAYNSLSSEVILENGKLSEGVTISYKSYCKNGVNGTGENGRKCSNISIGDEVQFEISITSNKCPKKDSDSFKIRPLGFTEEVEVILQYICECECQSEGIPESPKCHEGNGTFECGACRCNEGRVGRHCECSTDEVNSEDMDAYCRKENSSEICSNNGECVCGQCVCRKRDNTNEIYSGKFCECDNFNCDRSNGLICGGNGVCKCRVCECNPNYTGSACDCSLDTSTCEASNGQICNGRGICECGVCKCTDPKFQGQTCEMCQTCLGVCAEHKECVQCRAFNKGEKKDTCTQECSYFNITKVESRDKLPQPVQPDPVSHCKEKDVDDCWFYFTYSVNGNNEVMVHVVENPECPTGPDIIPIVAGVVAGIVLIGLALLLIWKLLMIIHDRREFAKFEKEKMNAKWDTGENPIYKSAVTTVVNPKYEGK
# Integrin alpha-V/beta-1, sequence (P06756 31-889 limits assumed): as the sequence (P06756 31-889 limits assumed) above
# Integrin alpha-V/beta-1, sequence (P06756 891-1048 limits assumed): as the sequence (P06756 891-1048 limits assumed) above
# Integrin alpha-V/beta-6, sequence (P06756 31-889 limits assumed): as the sequence (P06756 31-889 limits assumed) above
# Integrin alpha-V/beta-6, sequence (P06756 891-1048 limits assumed): as the sequence (P06756 891-1048 limits assumed) above
# Integrin alpha-V/beta-6, sequence (P18564 22-788 limits assumed): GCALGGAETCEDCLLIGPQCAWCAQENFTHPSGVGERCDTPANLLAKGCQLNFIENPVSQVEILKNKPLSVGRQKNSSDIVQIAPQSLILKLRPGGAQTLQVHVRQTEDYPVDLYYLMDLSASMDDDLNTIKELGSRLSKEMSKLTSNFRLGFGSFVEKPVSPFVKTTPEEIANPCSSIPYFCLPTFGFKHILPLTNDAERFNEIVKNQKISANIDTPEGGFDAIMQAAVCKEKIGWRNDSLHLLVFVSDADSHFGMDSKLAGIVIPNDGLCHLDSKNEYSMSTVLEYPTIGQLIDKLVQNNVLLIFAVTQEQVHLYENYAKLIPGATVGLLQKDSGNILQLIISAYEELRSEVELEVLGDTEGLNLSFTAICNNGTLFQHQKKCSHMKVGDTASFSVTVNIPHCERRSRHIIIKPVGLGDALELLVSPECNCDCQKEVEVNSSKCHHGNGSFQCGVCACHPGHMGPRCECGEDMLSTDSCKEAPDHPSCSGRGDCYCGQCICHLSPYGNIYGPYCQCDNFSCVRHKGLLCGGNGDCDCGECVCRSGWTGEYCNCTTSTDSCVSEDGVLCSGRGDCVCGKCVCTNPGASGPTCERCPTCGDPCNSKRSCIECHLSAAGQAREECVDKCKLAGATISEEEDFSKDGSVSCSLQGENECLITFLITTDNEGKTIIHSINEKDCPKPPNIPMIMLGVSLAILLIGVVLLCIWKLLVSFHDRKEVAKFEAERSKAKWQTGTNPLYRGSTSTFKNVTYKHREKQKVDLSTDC
pIC50 [1],pIC50 [2],pIC50 (Integrin alpha-V/beta-5 [3]),Structure (SMILES),pIC50 (Integrin alpha2/beta1),pIC50 (Integrin alpha-V/beta-1),pIC50 (Integrin alpha-V/beta-8),pIC50 (Integrin alpha-V/beta-3),pIC50 (Integrin alpha-5/beta-1),pIC50 (Integrin alpha-V/beta-6),pIC50 (Integrin alpha-V/beta-5 [4]),pIC50 (Integrin alpha-4/beta-7)
< 5.30,< 5.30,7.21,CC(C)(C)c1cc(Br)cc([C@H](CC(=O)O)NC(=O)CNC(=O)c2cc(O)cc(NC3=NCC(O)CN3)c2)c1 (some centres undefined),< 5.30,8.74,9.70,,,,,
,,,COc1ccc(S(=O)(=O)N[C@@H](CNc2nc(C)nc(N3CCC(c4ccc5c(n4)NCCC5)CC3)c2C)C(=O)O)cc1 [GLPG-0187],< 5.00,8.89,8.92,8.43,8.11,8.85,8.70,< 5.00
